Results from paper PMC3670925, “Extracellular Modulation of the Silkmoth Sex Pheromone Receptor Activity by Cyclic Nucleotides” (PLoS ONE, 2013).

Columns and labels:
Format in all cases: cell-based
AgOr2 = target: T1, AgOr2 (Anopheles gambiae, UniProt Q8WTE6); test: two-electrode voltage clamp in Xenopus oocytes, […]
T1 construct: gene OR2; with AgOrco

Or47a = target: T2, Or47a (Drosophila melanogaster, UniProt P81921); test: two-electrode voltage clamp in Xenopus oocytes, […]
T2 construct: with Orco
T2 sequence (P81921 1-385): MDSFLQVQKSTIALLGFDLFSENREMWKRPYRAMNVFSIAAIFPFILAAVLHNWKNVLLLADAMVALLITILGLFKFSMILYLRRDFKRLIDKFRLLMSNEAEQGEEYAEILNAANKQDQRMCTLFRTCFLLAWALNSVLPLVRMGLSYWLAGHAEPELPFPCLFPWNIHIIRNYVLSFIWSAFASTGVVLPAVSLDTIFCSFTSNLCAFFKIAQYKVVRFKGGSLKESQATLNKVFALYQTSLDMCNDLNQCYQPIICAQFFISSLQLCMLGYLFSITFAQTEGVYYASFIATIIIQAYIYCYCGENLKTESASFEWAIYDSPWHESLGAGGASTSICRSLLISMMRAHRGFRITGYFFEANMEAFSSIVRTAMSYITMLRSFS
T2 sequence (Q9VNB5 1-486 partner): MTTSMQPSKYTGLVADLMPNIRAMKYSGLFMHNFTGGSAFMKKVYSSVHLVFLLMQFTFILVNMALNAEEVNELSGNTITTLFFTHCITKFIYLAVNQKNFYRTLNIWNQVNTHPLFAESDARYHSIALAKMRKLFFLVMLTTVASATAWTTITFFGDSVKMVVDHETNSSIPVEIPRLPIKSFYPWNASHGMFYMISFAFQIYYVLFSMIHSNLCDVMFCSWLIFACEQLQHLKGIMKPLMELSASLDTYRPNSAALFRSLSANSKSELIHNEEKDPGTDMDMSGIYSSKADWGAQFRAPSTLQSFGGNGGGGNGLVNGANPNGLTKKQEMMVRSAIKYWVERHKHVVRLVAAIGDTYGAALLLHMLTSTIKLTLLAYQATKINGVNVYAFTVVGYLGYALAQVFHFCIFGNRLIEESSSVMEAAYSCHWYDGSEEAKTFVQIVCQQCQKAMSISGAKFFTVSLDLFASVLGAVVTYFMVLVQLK

BmOr-1 = target: T3, BmOr-1 (Bombyx mori, UniProt Q5WA61); test: two-electrode voltage clamp in Xenopus oocytes, dose-response
T3 construct: with BmOrco
T3 sequence (Q5WA61 1-430): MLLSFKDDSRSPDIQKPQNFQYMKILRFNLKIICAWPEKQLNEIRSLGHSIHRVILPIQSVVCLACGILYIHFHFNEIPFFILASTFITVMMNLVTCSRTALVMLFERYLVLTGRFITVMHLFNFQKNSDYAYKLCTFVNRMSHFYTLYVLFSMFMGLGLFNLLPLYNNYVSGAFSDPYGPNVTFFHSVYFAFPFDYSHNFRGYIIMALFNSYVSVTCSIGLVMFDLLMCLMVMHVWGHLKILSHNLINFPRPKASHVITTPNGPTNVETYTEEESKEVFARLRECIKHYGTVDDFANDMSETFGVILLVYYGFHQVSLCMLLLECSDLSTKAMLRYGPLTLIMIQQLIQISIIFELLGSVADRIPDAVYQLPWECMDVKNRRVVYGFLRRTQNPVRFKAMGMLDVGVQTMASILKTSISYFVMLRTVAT
T3 sequence (Q7YT34 1-472 partner): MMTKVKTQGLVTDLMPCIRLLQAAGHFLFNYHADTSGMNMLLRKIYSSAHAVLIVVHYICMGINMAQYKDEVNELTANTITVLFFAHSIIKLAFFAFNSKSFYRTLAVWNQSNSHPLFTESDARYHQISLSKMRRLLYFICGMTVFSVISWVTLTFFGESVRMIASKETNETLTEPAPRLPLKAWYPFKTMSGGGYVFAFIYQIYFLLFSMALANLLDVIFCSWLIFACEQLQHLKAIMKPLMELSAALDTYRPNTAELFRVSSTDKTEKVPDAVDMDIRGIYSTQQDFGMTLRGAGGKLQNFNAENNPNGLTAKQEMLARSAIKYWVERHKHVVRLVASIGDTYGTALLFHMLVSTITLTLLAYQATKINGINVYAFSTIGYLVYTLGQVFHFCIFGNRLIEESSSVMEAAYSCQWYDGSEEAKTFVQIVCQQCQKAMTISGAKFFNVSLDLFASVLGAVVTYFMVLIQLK

T1 sequence (Q8WTE6 whole entry): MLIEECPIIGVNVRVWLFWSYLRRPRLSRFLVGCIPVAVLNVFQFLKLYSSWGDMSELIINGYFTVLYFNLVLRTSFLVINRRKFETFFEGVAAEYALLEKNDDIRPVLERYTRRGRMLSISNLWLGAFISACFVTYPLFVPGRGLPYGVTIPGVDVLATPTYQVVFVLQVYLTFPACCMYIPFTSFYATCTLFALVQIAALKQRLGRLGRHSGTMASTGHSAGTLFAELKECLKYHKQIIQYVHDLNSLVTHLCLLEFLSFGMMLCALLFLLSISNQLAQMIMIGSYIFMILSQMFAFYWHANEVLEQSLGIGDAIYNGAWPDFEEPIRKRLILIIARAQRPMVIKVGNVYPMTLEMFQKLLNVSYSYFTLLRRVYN

Cc1ccccc1O [2-methylphenol]
two-electrode voltage clamp in Xenopus oocytes, 100 μM (AgOr2): oocytes expressing various insect Or-Orco complex in response to their cognate ligands and cyclic nucleotide reagents

CCCCCOC(C)=O [pentylacetate]
two-electrode voltage clamp in Xenopus oocytes, 100 μM (Or47a): oocytes expressing various insect Or-Orco complex in response to their cognate ligands and cyclic nucleotide reagents

CCC/C=C\C=C\CCCCCCCCCO [bombykol]
EC50 (BmOr-1): 8.2 µM
